Non-standard residues stand in square brackets, D forms with d. Residues, ends and D or L forms follow the SMILES beside them. ξ: configuration not given here. *: point of attachment. Palmitoyl = CCCCCCCCCCCCCCCC(=O)*; aThr = C[C@H](O)[C@H](N)C(=O)O; ξV = CC(C)C(N)C(=O)O

One assay relates to diabetic wound. The conditions noted are these: diabetic wound model; cited from earlier work.
Assay [1] deals with full thickness injury, atopic dermatitis. The conditions noted are these: rodent models of full thickness injury and atopic dermatitis; cited from earlier work.
In another assay the test system is ERK receptor. Conditions: cited from earlier work.
A further assay deals with dermal wound. The conditions noted are these: rat full thickness excision model; cited from earlier work.
The next assay concerns full thickness burn. Description: burn injury murine model, wound closure. The class given is in vivo. The conditions noted are these: mouse, 3 days and 7 days post treatment, one-way ANOVA, p<0.05. As for the experimental part:
The benefits of, and potential for, regeneration of the biocompatible and bioactive PA nanofiber scaffold was assessed in a mouse burn injury model. […] (See FIGS. 5 and 6). A 1×1 cm diameter steel billet was heated to 100° C. in a dry heat bath. Mice were anesthetized using isoflurane throughout the procedures. After successful anesthesia had been achieved, mice were clipped circumferentially on their trunks/dorsum and prepped with betadine. Burn injury was accomplished by applying the previously heated billet to the dorsum of each animal for 10 seconds. A total of 6 applications of the rod (3 on each side of the midline back) produced an approx. 20% total body surface area (TBSA) full thickness burn. Mice were further wrapped with a self-adherent wrap to protect the wound. Mice were resuscitated using 1.0 mL i.p. saline (which included 0.03 mL Buprenex SR and 0.06 mL Meloxicam SR) and placed onto warming pads until full recovery from anesthesia was determined. 8 hours post-burn, they received a 2nd bolus of 1 mL i.p. fluid. […] Healing was assessed following a single application. […] Quantification of wound healing was accomplished by digital image planimetry with ImageJ at 3 days, and 7 days post treatment, with representative images of wound healing at day 15 post treatment also being provided.

Another assay addresses T1, receptor of EPO (Homo sapiens, UniProt P19235).
T1 sequence (P19235 25-508): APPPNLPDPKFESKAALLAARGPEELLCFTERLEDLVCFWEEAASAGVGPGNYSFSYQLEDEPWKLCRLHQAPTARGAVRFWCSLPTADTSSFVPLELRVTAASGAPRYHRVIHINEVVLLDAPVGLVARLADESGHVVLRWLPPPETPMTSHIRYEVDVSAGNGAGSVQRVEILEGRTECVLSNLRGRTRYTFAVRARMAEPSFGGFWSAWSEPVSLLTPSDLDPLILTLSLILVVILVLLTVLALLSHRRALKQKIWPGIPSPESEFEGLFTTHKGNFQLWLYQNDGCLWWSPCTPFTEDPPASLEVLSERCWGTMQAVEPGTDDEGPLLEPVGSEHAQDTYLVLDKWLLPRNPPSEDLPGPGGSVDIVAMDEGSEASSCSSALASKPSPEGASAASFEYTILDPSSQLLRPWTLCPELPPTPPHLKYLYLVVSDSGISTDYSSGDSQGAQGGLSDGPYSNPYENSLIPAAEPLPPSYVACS
The conditions noted are these: cyclized through the cysteine residues; cited from earlier work.

For the next assay, the system named is erythropoiesis. Conditions: mice; cited from earlier work.

As for `N=C(N)NCCC[C@H](NC(=O)[C@@H](Cc1cnc[nH]1)NC(=O)[C@@H](N)CCC(N)=O)C(=O)N[C@H](CCC(=O)O)C(=O)N[C@@H](CC(=O)O)C(=O)NCC(=O)N[C@@H](CO)C(=O)O` [QHREDGS, QHREDGS (SEQ ID NO.4)], the wound closure result with diabetic wound is recorded as “significantly accelerate wound closure”.

Take `C[C@H](O)[C@H](NC(=O)[C@@H](CCCNC(=N)N)NC(=O)CNC(=O)[C@@H](CCC(=O)O)NC(=O)[C@@H](N)CCCNC(=N)N)C(=O)O` [REGRT, REGRT (SEQ ID NO.2)] (H-R[dE]G[dR][aThr]-OH): in assay [1], the wound healing result is listed as “promotion of wound healing”. In addition, in the assay with ERK receptor, the “phosphorylation of the ERK receptor” value is reported as “effective phosphorylation of the ERK receptor”. For the compound `CC(C)C[C@@H](NC(=O)CNC(=O)[C@@H](Cc1ccc(O)cc1)NC(=O)[C@@H](NC(=O)[C@H](NC(=O)[C@@H](N)CO)C(C)C)C(C)C)C(=O)N[C@@H](CCCNC(=N)N)C(=O)O` [SVVYGLR, SVVYGLR (SEQ ID NO.: 3)], the dermal wound healing entry with dermal wound was “effective in promoting dermal wound healing”. On to `CCCCCCCCCCCCCCCC(=O)NC(C(=O)N[C@H](C(=O)NCC(=O)N[C@@H](C)C(=O)NCC(=O)N[C@@H](C)C(=O)N[C@H](CCC(=O)O)C(=O)N[C@@H](CCC(=O)O)C(=O)N[C@H](CCC(=O)O)C(N)=O)C(C)C)C(C)C` (stereo partly shown) [diluent PA] (Palmitoyl-[ξV]VGAGA[dE]E[dE]-NH2), for which the “wound healing by digital image planimetry, significance vs control” value in the assay with full thickness burn is reported as “significant at 7 days”. With “GGTYSCHFGPLTWVCKPQGG (SEQ ID NO.: 1) [EMP1]”, the “activation of the EPO receptor” value with receptor of EPO was “capable of activating the receptor of EPO”. Further, the erythropoiesis result in the assay on erythropoiesis is “stimulating erythropoiesis”.

(Values after patent publication US20250249144A1, “PEPTIDE AMPHIPHILE SUPRAMOLECULAR POLYMERS FOR SPRAY DELIVERY AND TISSUE REGENERATION APPLICATIONS” (The University of Southern Mississippi, priority 2024, published 2025).)
